These results are taken from PMC9920912, “In Vitro Binding Effects of the Ecdysone Receptor−Binding Domain and PonA in Plutella xylostella” (Molecules, 2023).

Experiment [1] deals with T1, ecdysone receptor (PxGST−EcR) (Plutella xylostella, UniProt G5CV07).
T1 sequence (G5CV07 285-528): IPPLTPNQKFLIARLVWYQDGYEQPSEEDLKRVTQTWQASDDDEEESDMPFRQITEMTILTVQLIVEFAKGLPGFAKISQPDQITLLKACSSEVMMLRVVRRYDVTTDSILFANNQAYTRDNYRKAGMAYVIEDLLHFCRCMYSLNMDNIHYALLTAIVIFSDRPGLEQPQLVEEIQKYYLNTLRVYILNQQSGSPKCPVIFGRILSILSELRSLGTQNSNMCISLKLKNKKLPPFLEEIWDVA
T1 sequence (G5CV12 133-414 partner limits assumed): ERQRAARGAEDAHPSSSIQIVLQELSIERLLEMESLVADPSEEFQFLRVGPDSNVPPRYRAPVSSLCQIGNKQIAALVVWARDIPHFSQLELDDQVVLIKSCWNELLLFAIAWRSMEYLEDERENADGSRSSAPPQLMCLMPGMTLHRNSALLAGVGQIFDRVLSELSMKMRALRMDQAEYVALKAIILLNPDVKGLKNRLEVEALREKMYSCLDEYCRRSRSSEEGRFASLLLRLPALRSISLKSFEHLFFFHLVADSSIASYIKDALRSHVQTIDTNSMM
The experiment can be described thus: biochemical.

The target in experiment [2] is T1, ecdysone receptor (PxGST−EcR). The experiment can be described thus: competitive radioligand binding, displacement of [3H]PonA from purified EcR/USP dimer. The arrangement: truncated LBD-containing functional domain (D and E domains) fused to GST; with USP (PxGST−USP). For orientation: Displacement assays read how much labelled ligand stays bound in the presence of the test substance.

Experiment [3] deals with T2, PxGST-EcR (Plutella xylostella ecdysone receptor, truncated LBD-containing functional domain fused to … (Plutella xylostella, UniProt G5CV07)).
T2 chain: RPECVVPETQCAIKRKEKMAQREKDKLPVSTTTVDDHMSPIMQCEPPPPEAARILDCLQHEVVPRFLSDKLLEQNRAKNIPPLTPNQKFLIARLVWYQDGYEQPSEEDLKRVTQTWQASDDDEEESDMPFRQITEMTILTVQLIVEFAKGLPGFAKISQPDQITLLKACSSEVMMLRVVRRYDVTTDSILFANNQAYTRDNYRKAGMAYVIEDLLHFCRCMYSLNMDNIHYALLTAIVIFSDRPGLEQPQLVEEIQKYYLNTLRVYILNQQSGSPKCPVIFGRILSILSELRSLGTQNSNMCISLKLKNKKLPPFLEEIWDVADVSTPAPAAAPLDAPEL
The experiment can be described thus: TEM and zeta potential of co-incubated proteins, supported by enhanced [3H]PonA binding.

As to `CC(C)CC[C@@H](O)[C@](C)(O)[C@H]1CC[C@@]2(O)C3=CC(=O)[C@@H]4C[C@@H](O)[C@@H](O)C[C@]4(C)[C@H]3CC[C@]12C` [PonA], the Kd in experiment [1] came to 2.3 nM.

`CCc1ccc(C(=O)NN(C(=O)c2cc(C)cc(C)c2)C(C)(C)C)cc1` [tebufenozide] yielded an IC50 in experiment [2] of 80.6 nM. This counts as double-digit nanomolar.

B1: PxGST-USP (Plutella xylostella ultraspiracle, truncated LBD-containing functional domain fused to glutathione-S-transferase) (protein)
chain: KREAVQEERQRAARGAEDAHPSSSIQIVLQELSIERLLEMESLVADPSEEFQFLRVGPDSNVPPRYRAPVSSLCQIGNKQIAALVVWARDIPHFSQLELDDQVVLIKSCWNELLLFAIAWRSMEYLEDERENADGSRSSAPPQLMCLMPGMTLHRNSALLAGVGQIFDRVLSELSMKMRALRMDQAEYVALKAIILLNPDVKGLKNRLEVEALREKMYSCLDEYCRRSRSSEEGRFASLLLRLPALRSISLKSFEHLFFFHLVADSSIASYIKDALRSHVQTIDTNSMM
B1: in experiment [3], the binding result is “binds”.

For orientation: Kd means the equilibrium constant for the complex coming apart. Higher therefore signals weaker binding. Usually IC50 stands for the concentration that inhibits the measured activity by half.
